Assay: mn = molality of the nth substance listed, in mol/kg
Settings: 298 K, Ring tensiometer

CCCCCCCCCCCC[N+](C)(C)C.[Cl-] [N,N,N-trimethyl-1-dodecanaminium chloride] + O
Settings | surface tension liquid-gas [mN/m]
m1 = 3e-05 | 56.38
m1 = 5e-05 | 51.17
m1 = 7e-05 | 47.18
m1 = 0.0001 | 41.7
m1 = 0.00015 | 35.66
m1 = 0.0002 | 31.91
m1 = 0.0003 | 28.13
m1 = 0.0005 | 25.41
m1 = 0.0007 | 25.28
m1 = 0.001 | 25.68
m1 = 0.0013 | 25.4
m1 = 0.0016 | 25.52

CCCCCCCCCCCCOS(=O)(=O)[O-].[Na+] [sodium dodecyl sulfate] + O
Settings | surface tension liquid-gas [mN/m]
m1 = 0.00013 | 66.84
m1 = 0.00031 | 60.83
m1 = 0.00102 | 52.39
m1 = 0.00303 | 45.05
m1 = 0.00501 | 40.55
m1 = 0.007 | 38.58
m1 = 0.008 | 37.41
m1 = 0.009 | 37.73
m1 = 0.01 | 37.99
m1 = 0.012 | 37.76

From the NIST ThermoML archive (doi:10.1021/je400431e)
